The values below come from patent US20150299238A1, “SYNTHESIS AND USE OF PRODRUG COMPLEXES OF COBALT IN POLYMER THERAPEUTICS” (priority 2014, published 2015).

“Also recorded” adds a separate entry of the source.

In one data set the test system is SNU-5 cells. Description: Nanoparticle uptake by image-based flow cytometry. It counts as cell-based. As to conditions: for High uptake (red), percentage of cells / Low uptake (blue), percentage of cells / No uptake (green), percentage of cells: SNU-5, 8 h incubation, 100 μg/mL. On the procedure:
An Amnis FlowSight image-based flow cytometer equipped with a 488 nm (60 mW) and Side Scatter (7.85 mW) (EMD Millipore; Seattle, Wash.) was used to analyze cell samples. The FlowSight uses a CCD camera system to simultaneously collect both quantitative fluorescence and image data. For uptake studies, SNU-5 cells were incubated with Co-Alb-FITC NPs in the presence or absence of a commonly used inhibitor of macropinocytosis, 5-(N-ethyl-N-isopropyl)amiloride (EIPA), followed by fixation, and analysis via image-based flow cytometry.
SNU-5 cells were cultured at 37° C. and 5% CO2 in IMDM medium supplemented with 20% fetal bovine serum at cell densities between 1×10^5 and 1×10^6 cells/mL, and Jurkat cells were cultured at 37° C. and 5% CO2 in RPMI-1640 medium supplemented with 10% fetal bovine serum at cell densities between 1×10^5 and 1×10^6 cells/mL. For nanoparticle uptake experiments, cells were transferred to serum-starved IMDM or RPMI-1640 medium (0.1% FBS) and incubated at 37° C. and 5% CO2 for 10-16 h prior to dosing with nanoparticles. Cells (2 mL, 500,000 cells/mL) were incubated with the desired nanoparticle or control particle solution (100 μg/mL) with or without added EIPA for the times indicated. Cells were then washed twice with PBS, fixed for 12 min in 3.7% formaldehyde in PBS, washed twice with PBS, stained with NucBlue® Fixed Cell ReadyProbes® Reagent, and then washed twice more with PBS. Samples were either analyzed immediately or stored at 4° C. in the dark until analysis.
(Flow cytometry measures light scatter and fluorescence of single cells or particles in a stream.)

Data set [1] is described as follows: Analysis of PEGylation reaction by DLS, ethanolamine challenge of the Co linkage. In kind it is physicochemical. On the procedure: While sonicating (Branson, model #2510), human transferrin (0.5 mL of a 1 mg/mL aqueous solution, Sigma-Aldrich, cat. #T0665-50MG, lot #SLBC […]) was added. The solution had no discernible color and was allowed to stand undisturbed for 15 min. Dynamic light scattering (DLS, Microtrac Nanotrac Ultra) was used to measure particle size where the volume average particle size was 13.6 nm (standard deviation=4.2 nm). Hydrogen peroxide (20 μL of a 30% solution, Mallinckrodt AR, cat. #5240, lot #5240Y23470) was added while sonicating and the solution was thoroughly mixed by pipetting. The solution became faintly yellow but with no turbity. The solution was allowed to stand undisturbed for 30 min. Analysis of PEGylation reaction by DLS. The average diameter of both human transferrin (6.8 nm, SD=1.8 nm) and H2N-PEG-COOH (4.8 nm, SD=1.2 nm) were measured by DLS (FIG. 5). […] Addition of ethanolamine (50 mM) at this point led to a decrease in particle size back to 6.4 nm (SD=2.0) thereby degrading the prodrug linkage due to facile exchange of the Co amino ligands.

As for `CCN(c1nc(N)c(C(=O)N=C(N)N)nc1Cl)C(C)C` [EIPA, 5-(N-ethyl-N-isopropyl)amiloride], the “Cell viability in the uptake experiment” value in the data set on SNU-5 cells (SNU-5, 100 μM EIPA) is “slight decrease in cell viability”. Further, the “Effect on uptake of Co-Alb-FITC NPs” value in the data set with SNU-5 cells (SNU-5, pre-incubation with inhibitor) is given as “dramatic reduction in particle uptake; also recorded: reduce uptake in a dose-dependent manner”. The “Inhibitory effect on uptake over time” value in the data set with SNU-5 cells (SNU-5, uptake of Co-Alb-FITC NPs) is listed as “remained relatively constant over 8 h, but became greatly diminished at 24 h”.

Take FITC-Alb only: in the data set on SNU-5 cells (EIPA 0 μM), the “High uptake (red), percentage of cells” value stood at 13.9%; the “Low uptake (blue), percentage of cells” value is 45.4%; the “No uptake (green), percentage of cells” value is given as 40.6%. Also, in the data set with SNU-5 cells (EIPA 75 μM), the “High uptake (red), percentage of cells” value turned out to be 16.9%; the “Low uptake (blue), percentage of cells” value worked out at 11.8%; the “No uptake (green), percentage of cells” value is recorded as 71.3%. In addition, in the data set with SNU-5 cells (SNU-5, free protein 100 μg/mL, no NPs), the “Uptake in the presence of EIPA” value is “reduction in uptake”.

For the molecule transferrin-PEG conjugate, the “Particle size after addition of ethanolamine” value in data set [1] (ethanolamine 50 mM, not oxidized (Co(II))) is recorded as 6.4 nm. Also, the “Average diameter after addition of ethanolamine” value in data set [1] (oxidized 30 min with H2O2 (Co(III)) before ethanolamine) came out at 18.3 nm.
